{
  "source": "patent US9643936B1",
  "about": "“Form of tribenuron-methyl, a process for its preparation and use of the same” (ROTAM AGROCHEM INTERNATIONAL COMPANY LIMITED, priority 2015, dated 2017)",
  "type_in_all_cases": "physicochemical",
  "key": {"[1]": {"test": "Determining water solubility (pH 7 buffer, HPLC of supernatant)", "settings": "for Concentration measured by HPLC after treatment, %: pH 7 buffer, 20° C.", "experimental": "A stock pH 7 buffer solution was prepared by adding aqueous sodium hydroxide solution (0.1 M, 145 mL) to aqueous potassium dihydrogen phosphate solution (0.1 M, 250 mL), and then adding sufficient distilled water to adjust the final volume to 500 mL. At least 1 time and up to about 5 times the amount of tribenuron-methyl needed for saturation was added to a mixing vessel containing stock buffer solution at the test temperature (e.g., 20° C.). The mixture was magnetically stirred in the dark while being maintained at the test temperature. Samples were periodically removed for analysis. The samples were centrifuged using a high speed, temperature-controlled centrifuge at the test temperature for about 20 minutes at >12000 G to remove suspended particles. An aliquot of each supernatant was taken for analysis. The concentration of tribenuron-methyl in the supernatant was determined by a high pressure liquid chromatography (HPLC) with a reversed phase chromatography column and UV detection. The method should include development of best-fit calibration curves based on at least three standards using linear regression analysis. Samples were successively withdrawn from the mixing vessel and analyzed until three successive samples show little or no variation in concentration. The test is preferably replicated to ensure accuracy."}, "[2]": {"test": "Viscosity (stated finding, no method given)"}, "[3]": {"test": "Cleanout test (residual tribenuron-methyl in acetonitrile extract of rinsed bottle)", "settings": "for Cleanout rating, % (concentration of tribenuron-methyl in the acetonitrile solution): lower rating = more effective cleanout", "experimental": "The cleanout test was conducted by dispersing in water a sample to produce a concentration that is normally used when applying the herbicide: 25% tribenuron-methyl. The sample was added to tap water (300 mL) in a 400 mL beaker and magnetically stirred for 2 minutes. The mixture was then stirred for 2 minutes, whereupon the resulting dispersion was dispensed in three 100 mL aliquots to 4-oz (118 mL) polyethylene bottles. The bottles were capped, inverted twice and allowed to stand overnight.\nAfter standing overnight, each individual bottle was inverted twice and the liquid contents were then poured out. Tap water (10 mL) was added and the bottle was inverted until all sediment was re-suspended, whereupon the contents were poured out. Tap water (100 mL) was added and the bottle was inverted twice and then allowed to stand undisturbed for 10 minutes. The bottle was inverted twice more and the contents were poured out. Acetonitrile (10 mL) was added to the bottle to extract any remaining material. The acetonitrile solution was analyzed by reversed-phase liquid chromatography with UV detection. The cleanout rating (the concentration of tribenuron-methyl herbicide in the acetonitrile solution) is reported in % in Table 6 below."}, "[4]": {"settings": "OD formulation, measured vs original concentration 40%"}, "[5]": {"settings": "OD formulation, original concentration 40%"}, "[6]": {"settings": "SG formulation, measured vs original concentration 25%"}, "[7]": {"settings": "SG formulation, original concentration 25%"}, "[8]": {"settings": "WG formulation, measured vs original concentration 25%"}, "[9]": {"settings": "WG formulation, original concentration 25%"}},
  "data": [
    {"smiles": "COC(=O)c1ccccc1S(=O)(=O)NC(=O)N(C)c1nc(C)nc(OC)n1", "note": "[Tribenuron-methyl, crystalline modification I, 98% (prepared] [methyl 2-[4-methoxy-6-methyl-1,3,5-triazin-2-yl(methyl)carbamoylsulfamoyl]benzoate]", "values": [
      {"measurement": "Solubility", "setting": "[1]; [4]", "value": 88, "unit": "%"},
      {"measurement": "Concentration measured by HPLC after treatment, %", "setting": "[1]; [5]", "value": 35, "unit": "%"},
      {"measurement": "Solubility", "setting": "[1]; [6]", "value": 99.6, "unit": "%"},
      {"measurement": "Concentration measured by HPLC after treatment, %", "setting": "[1]; [7]", "value": 24.9, "unit": "%"},
      {"measurement": "Solubility", "setting": "[1]; [8]", "value": 92, "unit": "%"},
      {"measurement": "Concentration measured by HPLC after treatment, %", "setting": "[1]; [9]", "value": 23, "unit": "%"},
      {"measurement": "Solubility (in words)", "setting": "[1]; compared with amorphous tribenuron-methyl", "value": "significant increase in its solubility"},
      {"measurement": "Viscosity (in words)", "setting": "[2]; listed as crystalline modification I of tribenuron-methyl", "value": "significant decrease in its viscosity"},
      {"measurement": "Cleanout rating, % (concentration of tribenuron-methyl in the acetonitrile solution)", "setting": "[3]; OD formulation", "value": 5, "unit": "%"},
      {"measurement": "Cleanout rating, % (concentration of tribenuron-methyl in the acetonitrile solution)", "setting": "[3]; SG formulation", "value": 0.1, "unit": "%"},
      {"measurement": "Cleanout rating, % (concentration of tribenuron-methyl in the acetonitrile solution)", "setting": "[3]; WG formulation", "value": 2, "unit": "%"},
      {"measurement": "Cleanout properties (in words)", "setting": "[3]; compared with known amorphous tribenuron-methyl product", "value": "markedly superior cleanout properties"}
    ]},
    {"smiles": "COC(=O)c1ccccc1S(=O)(=O)NC(=O)N(C)c1nc(C)nc(OC)n1", "note": "[Amorphous tribenuron-methyl (prepared in Example 1)] [methyl 2-[4-methoxy-6-methyl-1,3,5-triazin-2-yl(methyl)carbamoylsulfamoyl]benzoate, reference compound]", "values": [
      {"measurement": "Solubility", "setting": "[1]; [4]", "value": 35, "unit": "%"},
      {"measurement": "Concentration measured by HPLC after treatment, %", "setting": "[1]; [5]", "value": 14, "unit": "%"},
      {"measurement": "Solubility", "setting": "[1]; [6]", "value": 60, "unit": "%"},
      {"measurement": "Concentration measured by HPLC after treatment, %", "setting": "[1]; [7]", "value": 15, "unit": "%"},
      {"measurement": "Solubility", "setting": "[1]; [8]", "value": 48, "unit": "%"},
      {"measurement": "Concentration measured by HPLC after treatment, %", "setting": "[1]; [9]", "value": 12, "unit": "%"},
      {"measurement": "Viscosity (in words)", "setting": "[2]; listed as tribenuron-methyl in amorphous state", "value": "highly viscous"},
      {"measurement": "Cleanout rating, % (concentration of tribenuron-methyl in the acetonitrile solution)", "setting": "[3]; OD formulation, prepared in Example 1", "value": 26, "unit": "%"},
      {"measurement": "Cleanout rating, % (concentration of tribenuron-methyl in the acetonitrile solution)", "setting": "[3]; SG formulation, prepared in Example 1", "value": 10, "unit": "%"},
      {"measurement": "Cleanout rating, % (concentration of tribenuron-methyl in the acetonitrile solution)", "setting": "[3]; WG formulation", "value": 13, "unit": "%"}
    ]}
  ]
}
